# pEC50: −log10 of the molar value.
# Target: mGluR4 (UniProt Q14833)
# Assay: mGluR4 potentiation assay (fluorescence, Ca2+ or thallium/GIRK readout; EC20 agonist)
# Format: cell-based, human / rat
# Conditions: half maximal effective concentration for mGluR4 potentiation; species of receptor not given
# Description: The disclosed compounds and compositions can be evaluated for their ability to act as a potentiator of metabotropic glutamate receptor activity, in particular mGluR4 activity, by any suitable known methodology known in the art. For example, Chinese Hamster Ovary (CHO) cells transfected with human mGluR4 or HEK cells co-transfected with rat mGluR4 and the G-protein regulated Inwardly Rectifying Potassium channel (GIRK) were plated in clear bottom assay plates for assay in a Hamamatsu FDSS Fluorometric Plate Reader. The cells were loaded with either a Ca2+-sensitive fluorescent dye or the thallium responsive dye and the plates were washed and placed into a suitable kinetic plate reader. For human mGluR4 assays, a fluorescence baseline was established for 3-5 seconds, the disclosed compounds were then added to the cells, and the response in cells was measured. Approximately two and a half minutes later, a concentration of mGluR4 orthosteric agonist (e.g. glutamate or L-AP4) eliciting approximately 20% (EC20) of the maximal agonist response was added to the cells, and the response was measured. Two minutes later, a concentration of mGluR4 agonist (e.g. glutamate or L-AP4) eliciting 80% (EC80) of the maximal agonist response was added to the cells, and the response was measured. For rat mGluR4/GIRK experiments, a baseline was established for approximately five seconds, disclosed compounds were added, and either an EC20 or EC80 concentration of agonist was added approximately two and one half minutes later. Potentiation of the agonist response of mGluR4 by the disclosed compounds was observed as an increase in response to the EC20 concentration of agonist in the presence of compound compared to the response to agonist in the absence of compound. Similarly, antagonism of the agonist response of mGluR4 by the disclosed compounds was observed as a decrease in response to the EC80 concentration of agonist in the presence of compound compared to the response to agonist in the absence of compound.
# The above described assay operated in two modes. In the first mode, a range of concentrations of the disclosed compounds are added to cells, followed by a single fixed concentration of agonist. If the compound acts as a potentiatior, an EC50 value for potentiation and a maximum extent of potentiation by the compound at this concentration of agonist is determined by non-linear curve fitting. If the compound acts as a noncompetitive antagonist, an IC50 value is determined by non-linear curve fitting. In the second mode, several fixed concentrations of the disclosed compounds are added to various wells on a plate, followed by a range in concentrations of agonist for each concentration of disclosed compound. The EC50 values for the agonist at each concentration of compound are determined by non-linear curve fitting. A decrease in the EC50 value of the agonist with increasing concentrations of the sample compound (a leftward shift of the agonist concentration-response curve) is an indication of the degree of mGluR4 potentiation at a given concentration of the sample compound. A decrease in the maximal response of the agonist with increasing concentrations of the sample compounds, with or without a rightward shift in agonist potency, is an indication of the degree of noncompetitive antagonism at mGluR4. The second mode also indicates whether the sample compounds also affect the maximum response to mGluR4 to agonists.
row,Structure (SMILES),pEC50
1,"O=C(Nc1ccc(N2C(=O)C3CCCN3C2=O)c(Cl)c1)c1ccccn1 (stereo not drawn) [Example 1.3.9, N-(3-chloro-4-(1,3-dioxo-1H-pyrrolo[1,2-c]imidazol-2(3H,5H,6H,7H,7aH)-yl)phenyl)picolinamide]",5.68
2,O=C(Nc1ccc(N2C(=O)C3CNCCN3C2=O)c(Cl)c1)c1ccccn1 (stereo not drawn) [Example 1.3.45],5.38
3,"C[C@]1(Cc2ccccc2)NC(=O)N(c2ccc(NC(=O)c3ccccn3)cc2Cl)C1=O [Example 1.3.19, (R)-N-(4-(4-Benzyl-4-methyl-2,5-dioxoimidazolidin-1-yl)-3-chlorophenyl)picolinamide]",6.08
4,O=C(Nc1ccc(N2C(=O)C3CCCCN3C2=S)c(Cl)c1)c1ccccn1 (stereo not drawn) [Example 1.3.10],6.44
5,"O=C(Nc1ccc(N2C(=O)C3COCCN3C2=S)c(Cl)c1)c1cccs1 (stereo not drawn) [Example 1.3.33, N-(3-Chloro-4-(1-oxo-3-thioxodihydro-1H-imidazo[5,1-c][1,4]oxazin-2(3H,8H,8aH)-yl)phenyl)thiophene-2-carboxamide]",5.07
6,"O=C(Nc1ccc(N2C(=O)C3CCCCN3C2=O)c(Cl)c1)c1ccncn1 (stereo not drawn) [Example 1.3.6, N-(3-Chloro-4-(1,3-dioxotetrahydroimidazo[1,5-a]pyridin-2(1H,3H,5H)-yl)phenyl)pyrimidine-4-carboxamide]",5.59
7,"CC(C)C[C@]1(C)NC(=O)N(c2ccc(NC(=O)c3ccccn3)cc2Cl)C1=O [Example 1.3.16, (S)-N-(3-chloro-4-(4-isobutyl-4-methyl-2,5-dioxoimidazolidin-1-yl)phenyl)picolinamide]",5.44
8,"O=C(Nc1ccc(N2C(=O)C3CCCCN3C2=O)c(Cl)c1)c1ccccn1 (stereo not drawn) [Example 1.3.2, N-(3-chloro-4-(1,3-dioxotetrahydroimidazo[1,5-a]pyridin-2(1H,3H,5H)-yl)phenyl)picolinamide]",6.09
9,"O=C(Nc1ccc(N2C(=O)C3CSCCN3C2=O)c(Cl)c1)c1ccccn1 (stereo not drawn) [Example 1.3.40, N-(3-chloro-4-(1,3-dioxodihydro-1H-imidazo[5,1-c][1,4]thiazin-2(3H,8H,8aH)-yl)phenyl)picolinamide]",6.39
10,"O=C(Nc1ccc(N2C(=O)C3COCCN3C2=S)c(Cl)c1)c1cccc(F)n1 (stereo not drawn) [Example 1.3.38, N-(3-Chloro-4-(1-oxo-3-thioxodihydro-1H-imidazo[5,1-c][1,4]oxazin-2(3H, 8H,8aH)-yl)phenyl)-6-fluoropicolinamide]",6.03
11,"O=C(Nc1ccc(N2C(=O)C3COCCN3C2=S)c(Cl)c1)c1ncc(F)cc1F (stereo not drawn) [Example 1.3.36, N-(3-Chloro-4-(1-oxo-3-thioxodihydro-1H-imidazo[5,1-c][1,4]oxazin-2(3H, 8H,8aH)-yl)phenyl)-3,5-difluoropicolinamide]",5.77
12,"O=C(Nc1ccc(N2C(=O)C3CCCCN3C2=O)c(Cl)c1)c1ncccc1F (stereo not drawn) [Example 1.3.7, N-(3-Chloro-4-(1,3-dioxotetrahydroimidazo[1,5-a]pyridin-2(1H,3H,5H)-yl)phenyl)-3-fluoropicolinamide]",5.48
13,"O=C(Nc1ccc(N2C(=O)C3COCCN3C2=S)c(Cl)c1)c1cccc(Cl)n1 (stereo not drawn) [Example 1.3.32, 6-Chloro N-(3-chloro-4-(1-oxo-3-thioxodihydro-1H-imidazo[5,1-c][1,4]oxazin-2(3H,8H, 8aH)-yl)phenyl)picolinamide]",5.83
14,"O=C(Nc1ccc(N2C(=O)C3CSCCN3C2=O)c(Cl)c1)c1cccc(F)n1 (stereo not drawn) [Example 1.3.42, N-(3-chloro-4-(1,3-dioxodihydro-1H-imidazo[5,1-c][1,4]thiazin-2(3H,8H,8aH)-yl)phenyl)-6-fluoropicolinamide]",5.93
15,"CC(C)C[C@@]1(C)NC(=O)N(c2ccc(NC(=O)c3ccccn3)cc2Cl)C1=O [Example 1.3.17, (R)-N-(3-chloro-4-(4-isobutyl-4-methyl-2,5-dioxoimidazolidin-1-yl)phenyl)picolinamide]",5.82

# Further lines, results first:
row,pEC50,Structure (SMILES)
1,6.34,"O=C(Nc1ccc(N2C(=O)NC3(CCCCC3)C2=O)c(C(F)(F)F)c1)c1ccccn1 [Example 1.3.50, N-(4-(2,4-dioxo-1,3-diazaspiro[4.5]decan-3-yl)-3-(trifluoromethyl)phenyl)picolinamide]"
2,6.08,"CC12CCCCN1C(=S)N(c1ccc(NC(=O)c3ccc(Cl)o3)cc1Cl)C2=O (stereo not drawn) [Example 1.3.97, 5-chloro-N-(3-chloro-4-(8a-methyl-1-oxo-3-thioxohexahydroimidazo[1,5-a]pyridin-2(3H)-yl)phenyl)furan-2-carboxamide]"
3,5.87,"O=C(Nc1ccc(N2C(=O)C3CCCCN3C2=S)c(Cl)c1)c1nccs1 (stereo not drawn) [Example 1.3.79, N-(3-chloro-4-(1-oxo-3-thioxohexahydroimidazo[1,5-a]pyridin-2(3H)-yl)phenyl)thiazole-2-carboxamide]"
4,6.00,"O=C(Nc1ccc(N2C(=O)C3CCCCN3C2=S)c(Cl)c1)c1ncccc1F (stereo not drawn) [Example 1.3.84, N-(3-chloro-4-(1-oxo-3-thioxohexahydroimidazo[1,5-a]pyridin-2(3H)-yl)phenyl)-3-fluoropicolinamide]"
5,6.19,"CC12CCCCN1C(=S)N(c1ccc(NC(=O)c3ncccc3F)cc1Cl)C2=O (stereo not drawn) [Example 1.3.99, N-(3-chloro-4-(8a-methyl-1-oxo-3-thioxohexahydroimidazo[1,5-a]pyridin-2(3H)-yl)phenyl)-3-fluoropicolinamide]"
6,6.12,"CC12CCCCN1C(=S)N(c1ccc(NC(=O)c3nccs3)cc1Cl)C2=O (stereo not drawn) [Example 1.3.94, N-(3-chloro-4-(8a-methyl-1-oxo-3-thioxohexahydroimidazo[1,5-a]pyridin-2(3H)-yl)phenyl)thiazole-2-carboxamide]"
7,6.06,"O=C(Nc1ccc(N2C(=O)C3CCCCN3C2=S)c(Cl)c1)c1ncc(F)cc1F (stereo not drawn) [Example 1.3.81, N-(3-chloro-4-(1-oxo-3-thioxohexahydroimidazo[1,5-a]pyridin-2(3H)-yl)phenyl)-3,5-difluoropicolinamide]"
8,6.13,"O=C(Nc1ccc(N2C(=O)NC(C3CCCCC3)C2=O)c(Cl)c1)c1ccccn1 (stereo not drawn) [Example 1.3.70, N-(3-chloro-4-(4-cyclohexyl-2,5-dioxoimidazolidin-1-yl)phenyl)picolinamide]"
9,6.33,"CC12CCCCN1C(=S)N(c1ccc(NC(=O)c3cccc(F)n3)cc1Cl)C2=O (stereo not drawn) [Example 1.3.98, N-(3-chloro-4-(8a-methyl-1-oxo-3-thioxohexahydroimidazo[1,5-a]pyridin-2(3H)-yl)phenyl)-6-fluoropicolinamide]"
10,5.75,"O=C(Nc1ccc(N2C(=O)C3CCCCN3C2=S)c(Cl)c1)c1ccsc1 (stereo not drawn) [Example 1.3.78, N-(3-chloro-4-(1-oxo-3-thioxohexahydroimidazo[1,5-a]pyridin-2(3H)-yl)phenyl)thiophene-3-carboxamide]"
11,5.56,"O=C(Nc1ccc(N2C(=O)C3CCCCN3C2=S)c(Cl)c1)c1cccs1 (stereo not drawn) [Example 1.3.77, N-(3-chloro-4-(1-oxo-3-thioxohexahydroimidazo[1,5-a]pyridin-2(3H)-yl)phenyl)thiophene-2-carboxamide]"
12,6.70,"CC(C)(C)[C@@H]1NC(=O)N(c2ccc(NC(=O)c3ccccn3)cc2Cl)C1=O [Example 1.3.57, (S)-N-(4-(4-(tert-butyl)-2,5-dioxoimidazolidin-1-yl)-3-chlorophenyl)picolinamide]"
13,5.98,"CC12CCCCN1C(=S)N(c1ccc(NC(=O)c3cscn3)cc1Cl)C2=O (stereo not drawn) [Example 1.3.95, N-(3-chloro-4-(8a-methyl-1-oxo-3-thioxohexahydroimidazo[1,5-a]pyridin-2(3H)-yl)phenyl)thiazole-4-carboxamide]"
14,6.01,"O=C(Nc1ccc(N2C(=O)C3CN(C(=O)c4ccco4)CCN3C2=O)c(Cl)c1)c1ccccn1 (stereo not drawn) [Example 1.3.74, N-(3-chloro-4-(7-(furan-2-carbonyl)-1,3-dioxohexahydroimidazo[1,5-a]pyrazin-2(3H)-yl)phenyl)picolinamide]"
15,5.53,"C[C@@]1(Cc2ccccc2)NC(=O)N(c2ccc(NC(=O)c3ncc(F)cc3F)cc2Cl)C1=O [Example 1.3.66, (S)-N-(4-(4-benzyl-4-methyl-2,5-dioxoimidazolidin-1-yl)-3-chlorophenyl)-3,5-difluoropicolinamide]"
